# Several values for one entry are separate records, joined by “and”; a condition that tells them apart may be missing. Equal values may be shown once. Entries after “also recorded” stand apart in the source; their conditions may differ.
# What was measured:
# [1] = system: Immunoglobulin levels (IgG, IgA and IgM); experiment: First observational study: serum immunoglobulin levels by nephelometry, clozapine-treated vs clozapine-naive patients; format: in vivo, human
# [2] = system: Specific antibody titres against Haemophilus influenzae, Tetanus and Pneumococcal capsular polysaccharide; design: species or system human; conditions: in vivo
# [3] = system: circulating B cell subsets; experiment: Second observational study (interim analysis): circulating B cell subsets by FACS; format: in vivo, human
# [4] = system: anti-type II collagen IgG1 and IgG2a; experiment: Mouse CIA model: specific anti-collagen immunoglobulin by ELISA; format: in vivo, DBA/1 mice
# [5] = system: T follicular helper cells and T regulatory cells; experiment: Mouse CIA model: T follicular helper and T regulatory cells in spleen and lymph node by flow cytometry; format: in vivo, DBA/1 mice
# [6] = system: total peripheral blood B-cells isolated from healthy donors; format: cell-based, human; conditions: clozapine 25-350 ng/ml, norclozapine 15-200 ng/ml, haloperidol 2-25 ng/ml
# Description: The experiment was performed from four independent donors.
# [7] = mouse, in vivo
# [8] = human, in vivo; cited from earlier work
# [9] = Michel. L. et al., 2015; cited from earlier work
# [10] = sub-group A: all diagnoses, all smoking, secondary causes not excluded, n=123
# [11] = sub-group A: all diagnoses, all smoking, secondary causes not excluded, n=123, listed as clozapine
# [12] = sub-group B: possible secondary causes excluded, n=94
# [13] = sub-group C: schizophrenia diagnoses only, secondary causes excluded, n=87
# [14] = sub-group D: smokers only, secondary causes excluded, n=57
smiles,measurement,setting,value
"CN1CCN(C2=Nc3cc(Cl)ccc3Nc3ccccc32)CC1 [Clozapine, clozapine]","Concentrations / distribution of serum IgG, IgA and IgM vs clozapine-naive control group",[1]; FIG. 1A-D,significantly reduced; also recorded: leftward shift (reduction)
same,Effect of duration of clozapine therapy on serum IgG levels,"[1]; p 0.014, not observed in clozapine-naive patients",associated with lower serum IgG levels; also recorded: progressively reduced IgG levels
same,"Serum IgA <0.5 g/L, percentage of patients",[1]; [10],1.6%
same,"Serum IgA <0.6 g/L, percentage of patients",[1]; [10],2.4%
same,"Serum IgA <0.7 g/L, percentage of patients",[1]; [10],6.5%
same,"Serum IgA <0.8 g/L (below reference range 0.8-4.0 g/L), percentage of patients",[1]; [10],13.1% and 13.0%
same,"Serum IgG <3 g/L, percentage of patients",[1]; [10],0.8%
same,"Serum IgG <4 g/L, percentage of patients",[1]; [10],1.6%
same,"Serum IgG <5 g/L, percentage of patients",[1]; [10],3.3%
same,"Serum IgG <6 g/L (below reference range 6-16 g/L), percentage of patients",[1]; [10],9.8%
same,"Serum IgM <0.2 g/L, percentage of patients",[1]; [10],8.1%
same,"Serum IgM <0.3 g/L, percentage of patients",[1]; [10],16.3%
same,"Serum IgM <0.4 g/L, percentage of patients",[1]; [10],29.3%
same,"Serum IgM <0.5 g/L (below reference range 0.5-1.9 g/L), percentage of patients",[1]; [10],38.2%
same,"Serum IgA <0.8 g/L (below reference range 0.8-4.0 g/L), percentage of patients",[1]; [11],13.0%
same,"Serum IgG <6 g/L (below reference range 6-16 g/L), percentage of patients",[1]; [11],9.8%
same,"Serum IgM <0.5 g/L (below reference range 0.5-1.9 g/L), percentage of patients",[1]; [11],38.2%
same,"Serum IgA <0.5 g/L, percentage of patients",[1]; [12],2.1%
same,"Serum IgA <0.6 g/L, percentage of patients",[1]; [12],2.1%
same,"Serum IgA <0.7 g/L, percentage of patients",[1]; [12],6.4%
same,"Serum IgA <0.8 g/L (below reference range 0.8-4.0 g/L), percentage of patients",[1]; [12],13.8%
same,"Serum IgG <3 g/L, percentage of patients",[1]; [12],1.1%
same,"Serum IgG <4 g/L, percentage of patients",[1]; [12],1.1%
same,"Serum IgG <5 g/L, percentage of patients",[1]; [12],2.1%
same,"Serum IgG <6 g/L (below reference range 6-16 g/L), percentage of patients",[1]; [12],8.4%
same,"Serum IgM <0.2 g/L, percentage of patients",[1]; [12],5.3%
same,"Serum IgM <0.3 g/L, percentage of patients",[1]; [12],12.8%
same,"Serum IgM <0.4 g/L, percentage of patients",[1]; [12],26.6%
same,"Serum IgM <0.5 g/L (below reference range 0.5-1.9 g/L), percentage of patients",[1]; [12],34.0%
same,"Serum IgA <0.5 g/L, percentage of patients",[1]; [13],2.3%
same,"Serum IgA <0.6 g/L, percentage of patients",[1]; [13],3.5%
same,"Serum IgA <0.7 g/L, percentage of patients",[1]; [13],6.9%
same,"Serum IgA <0.8 g/L (below reference range 0.8-4.0 g/L), percentage of patients",[1]; [13],14.9%
same,"Serum IgG <3 g/L, percentage of patients",[1]; [13],1.2%
same,"Serum IgG <4 g/L, percentage of patients",[1]; [13],1.2%
same,"Serum IgG <5 g/L, percentage of patients",[1]; [13],2.3%
same,"Serum IgG <6 g/L (below reference range 6-16 g/L), percentage of patients",[1]; [13],9.2%
same,"Serum IgM <0.2 g/L, percentage of patients",[1]; [13],5.8%
same,"Serum IgM <0.3 g/L, percentage of patients",[1]; [13],12.6%
same,"Serum IgM <0.4 g/L, percentage of patients",[1]; [13],27.6%
same,"Serum IgM <0.5 g/L (below reference range 0.5-1.9 g/L), percentage of patients",[1]; [13],35.6%
same,"Serum IgA <0.5 g/L, percentage of patients",[1]; [14],3.5%
same,"Serum IgA <0.6 g/L, percentage of patients",[1]; [14],3.5%
same,"Serum IgA <0.7 g/L, percentage of patients",[1]; [14],3.5%
same,"Serum IgA <0.8 g/L (below reference range 0.8-4.0 g/L), percentage of patients",[1]; [14],10.5%
same,"Serum IgG <3 g/L, percentage of patients",[1]; [14],1.8%
same,"Serum IgG <4 g/L, percentage of patients",[1]; [14],1.8%
same,"Serum IgG <5 g/L, percentage of patients",[1]; [14],1.8%
same,"Serum IgG <6 g/L (below reference range 6-16 g/L), percentage of patients",[1]; [14],8.8%
same,"Serum IgM <0.2 g/L, percentage of patients",[1]; [14],1.78%
same,"Serum IgM <0.3 g/L, percentage of patients",[1]; [14],12.3%
same,"Serum IgM <0.4 g/L, percentage of patients",[1]; [14],26.3%
same,"Serum IgM <0.5 g/L (below reference range 0.5-1.9 g/L), percentage of patients",[1]; [14],33.3%
same,"IgG-Haemophilus B <1.0 mcg/ml, percentage of patients",[2],51% and 51.2% and 51.1% and 49.4% and 50.9%
same,"IgG-Pneumococcus <35 mg/L, percentage of patients",[2],39.0% and 38.3% and 37.9% and 45.6%
same,"IgG-Pneumococcus <50 mg/L, percentage of patients",[2],52.1% and 50.6% and 54.4%
same,"IgG-Tetanus <0.1 IU/ml, percentage of patients",[2],10.6% and 11.5% and 12.3%
same,"IgM-Pneumococcus, mean",[2],58.5 U/L and 59.8 U/L and 60.4 U/L and 61.6 U/L
same,Pneumococcal IgM level,[2],58.5 U/ml
same,Overall CD19+ B cell numbers vs control,[3]; FIG. 8A-B,not significantly different
same,Naive (CD19+ CD27-) B cells as a proportion of total CD19+ B cells,[3]; FIG. 9A-C,Small increase
same,Overall memory B cell pool or IgMhi IgDlo memory B cell subpopulation,"[3]; FIG. 10A-C, 12A-C",without perturbation
same,Circulating levels of transitional B cells or marginal zone B cells,"[3]; FIG. 13A-C, 14A-C",No significant difference
same,Class-switched memory B cells (CD27+ IgM- IgD- as % B),"[3]; P=0.06 vs control, FIG. 11A-C",Strong trends to a specific reduction
same,Levels of plasmablasts,"[3]; P=0.07 vs control clozapine naive, FIG. 15A-C",Strong trends to reduction
same,Reduction of anti-type II collagen IgG1,[4]; 10 mg/kg from day 15,reaching statistical significance
same,Serum anti-type II collagen IgG2a,"[4]; 5 or 10 mg/kg from day 1 or day 15, single time point",no significant impact
same,Levels of anti-type II collagen IgG1,[4]; across all doses tested,nominal reductions
same,Proportions of CD4+PD1+CXCR5+ T follicular helper cells in lymph node or spleen,[5]; 5 or 10 mg/kg from day 1 or day 15,did not significantly affect
same,Expression of PD-1 (MFI) in lymph node T follicular helper cells,[5]; all doses and time points,Reduced expression
same,Expression of CD25 on Tregs,[5]; dosed from day 1,significantly upregulate
same,Foxp3 expression on Tregs,[5]; dosed from day 1,not alter
same,CXCR5 expression (MFI) on T follicular helper cells,"[5]; dosed from day 1, lymph node and spleen",significant reductions
same,Proportion of CD4+CD25+Foxp3+ T regulatory cells (Tregs),"[5]; higher dose tested, from day 1, lymph node and spleen",increase the proportion
same,Expression of CCR7 on T follicular helper cells,[5]; lymph node and spleen,reduced expression
same,Functional or phenotypic maturation of activated B cells to an early PC state,[6],no consistent inhibitory effect
same,Ability of differentiated ASCs to secrete antibody (total IgM/IgG ELISA),[6]; day 6 and day 9,no consistent effect
same,Effects on thermoregulation,[7],effects on thermoregulation were also evident
same,Sedative effects,"[7]; ip, 5 mg/kg",Clear dose-related sedative effects
same,Previously treatment refractive schizophrenia patients in whom effective,[8],approximately 60%
same,CNS penetration,[9],high levels of CNS penetration
